Experimental data reported in patent US8933075B2, “Compounds useful as antiviral agents, compositions, and methods of use” (priority 2010, dated 2015).
Where two headings read alike, the source gives them in different places.

Tests used:
[1] = tested on: A/Udorn/72 (H3N2) virus; test: Plaque assay in MDCK cells: EC50 by reduction of plaque number; assay type: cell-based, influenza virus
[2] = tested on: pseudoHIV particles; test: HIV pseudovirus assay in X4 cells (luciferase); assay type: cell-based, HIV-1; details: Human immunodeficiency virus 1, read-out: HIV EC50
Method: A plasmid coding the HIV-1 genome, deleting the envelope protein gene and with a luciferase gene inserted, and a plasmid coding the envelope protein gene were cotransfected into 293T cells. After 48 hr, the supernatant containing pseudoHlV particles was collected for transducing assay. In 96 well plates, X4 cells were plated and incubated till confluent. The pseudoHlV particles were incubated with various concentrations of inhibitor compounds for one hour in room temperature. The particles were then used for tranducing X4 cells. The transduced X4 cells were lysed after 48 hr and the luciferase activity was measured in a luminometer.

Row | SMILES | EC50 ([1]; MDCK) [nM] | EC50 [2] [nM] | EC50 [1] [nM]
1 | CCOC(=O)COc1cc(-c2ccc(/C=C3\SC(=S)N(C4C5CC6CC(C5)CC4C6)C3=O)o2)ccc1OC (stereo not shown) [Compound 21] | < 100 | < 100 | –
2 | COc1cc(OC)cc(-c2cc(CCCCO)c(/C=C3\SC(=S)N(C4C5CC6CC(C5)CC4C6)C3=O)o2)c1 (stereo not shown) [Compound 114] | < 100 | < 100 | –
3 | COc1cc(OC)cc(-c2cc(CCCNC(=O)[C@@H](N)c3ccccc3)c(/C=C3\SC(=S)N(C4CC5CCC4C5)C3=O)o2)c1 (stereo partly shown) [Compound 170] | < 100 | < 100 | –
4 | COc1cc(O)cc(-c2cc(CCCN)c(/C=C3\SC(=S)N(C4CC5CCC4C5)C3=O)o2)c1 (stereo not shown) [Compound 122] | < 100 | < 100 | –
5 | COC(=O)c1cc(-c2ccc(/C=C3\SC(=S)N(C4C5CC6CC(C5)CC4C6)C3=O)o2)cc(OC)c1OC (stereo not shown) [Compound 32] | < 100 | < 100 | –
6 | COc1cc(OC)cc(-c2cc(CCCNC(=O)[C@@H](N)Cc3ccccc3)c(/C=C3\SC(=S)N(C4CC5CCC4C5)C3=O)o2)c1 (stereo partly shown) [Compound 171] | < 100 | < 100 | –
7 | COc1cc(O)cc(-c2cc(CCCN)c(/C=C3\SC(=S)N(C4C5CC6CC(C5)CC4C6)C3=O)o2)c1 (stereo not shown) [Compound 123] | < 100 | < 100 | –
8 | COc1cc(OCC(=O)N2CCC[C@H]2C(=O)O)cc(-c2ccc(/C=C3\SC(=S)N(C4CC5CCC4C5)C3=O)o2)c1 (stereo partly shown) [Compound 84] | < 100 | < 100 | –
9 | COc1cc(OC)cc(-c2cc(CCCOC(=O)[C@H](CC(N)=O)NC(=O)OC(C)(C)C)c(/C=C3\SC(=S)N(C4CC5CCC4C5)C3=O)o2)c1 (stereo partly shown) [Compound 138] | < 100 | < 100 | –
10 | COc1ccc(-c2ccc(/C=C3\SC(=S)N(C4C5CC6CC(C5)CC4C6)C3=O)o2)cc1O (stereo not shown) [Compound 23] | < 100 | < 100 | –
11 | COc1cc(OC)cc(-c2ccc(/C=C3\SC(=S)N(C4CC5CCC4C5)C3=O)o2)c1 (stereo not shown) [Compound 19] | < 100 | < 100 | –
12 | COc1cc(O)cc(-c2ccc(/C=C3\SC(=S)N(C4CC5CCC4C5)C3=O)o2)c1 (stereo not shown) [Compound 17] | < 100 | < 100 | –
13 | O=C1/C(=C/c2oc(-c3ccc(F)cc3)cc2CCCO)SC(=S)N1C1CC2CCC1C2 (stereo not shown) [Compound 104] | < 100 | < 100 | –
14 | CCOC(=O)COc1cc(-c2ccc(/C=C3\SC(=S)N(C4C5CC6CC(C5)CC4C6)C3=O)o2)cc(OC)c1OC (stereo not shown) [Compound 30] | < 100 | < 100 | –
15 | NCCCc1cc(-c2ccc(Cl)cc2)oc1/C=C1\SC(=S)N(C2CC3CCC2C3)C1=O (stereo not shown) [Compound 124] | < 100 | < 100 | –
16 | COc1cc(OC)cc(-c2cc(/C=C/C(=O)O)c(/C=C3\SC(=S)N(C4CC5CCC4C5)C3=O)o2)c1 (stereo not shown) [Compound 130] | < 100 | < 100 | –
17 | COc1cc(O)cc(-c2cc(CCCO)c(/C=C3\SC(=S)N(C4C5CC6CC(C5)CC4C6)C3=O)o2)c1 (stereo not shown) [Compound 102] | < 100 | < 100 | –
18 | COc1cc(O)cc(-c2cc(CCCC(C(=O)O)C(=O)O)c(/C=C3\SC(=S)N(C4CC5CCC4C5)C3=O)o2)c1 (stereo not shown) [Compound 137] | – | < 100 | –
19 | O=C1/C(=C/c2sc(-c3cccc(Cl)c3)cc2CCCCCO)SC(=S)N1C1CC2CCC1C2 (stereo not shown) [Compound 277] | < 100 | – | –
20 | O=C1/C(=C/c2[nH]c(-c3ccc(Cl)cc3)cc2CCCO)SC(=S)N1C1CC2CCC1C2 (stereo not shown) [Compound 229] | < 100 | – | –
21 | O=C1/C(=C/c2cn(-c3ccc([N+](=O)[O-])cc3)cn2)SC(=S)N1C1CCCCCCCCCCC1 [Compound 64] | < 100 | – | –

Row | SMILES | EC50 ([1]; MDCK) [nM] | EC50 [2] [nM] | EC50 [1] [nM]
22 | CCCCCc1ccc2oc(=O)c(-c3ccc(/C=C4\SC(=S)N(C5CC6CCC5C6)C4=O)o3)c(O)c2c1 (stereo not shown) [Compound 320] | < 100 | – | –
23 | COCOc1cc(-c2ccc(/C=C3\SC(=S)N(C4CC5CCC4C5)C3=O)o2)cc(OC)c1OCOC (stereo not shown) [Compound 26] | < 100 | – | –
24 | O=C1/C(=C/c2ccc(-c3ccc(Cl)cc3)s2)SC(=S)N1C1C2CC3CC(C2)CC1C3 (stereo not shown) [Compound 317] | < 100 | – | –
25 | COc1ccc(-c2ccc(/C=C3\SC(=S)N(C4CC5CCC4C5)C3=O)o2)cc1OCC(=O)O (stereo not shown) [Compound 35] | < 100 | – | –
26 | CC(C)(C)OC(=O)N[C@@H](CC(N)=O)C(=O)OCCCc1cc(-c2ccc(Cl)cc2)[nH]c1/C=C1\SC(=S)N(C2C3CC4CC(C3)CC2C4)C1=O (stereo partly shown) [Compound 253] | < 100 | – | –
27 | COc1ccc2c(O)c(-c3ccc(/C=C4\SC(=S)N(C5CC6CCC5C6)C4=O)o3)c(=O)oc2c1 (stereo not shown) [Compound 73] | 100 to 250 | – | –
28 | COc1cccc(-c2cc(CCCCCO)c(/C=C3\SC(=S)N(C4CC5CCC4C5)C3=O)n2C)c1 (stereo not shown) [Compound 262] | > 1000 | – | –
29 | COc1cc(OC)cc(-c2cc(CCCOC(C)=O)c(/C=C3\SC(=S)N(C4CC5CCC4C5)C3=O)o2)c1 (stereo not shown) [Compound 97] | < 100 | – | –
30 | COc1cccc(-c2c(C#CCCCOC(=O)[C@H](CC(N)=O)NC(=O)OC(C)(C)C)cc(/C=C3\SC(=S)N(C4CC5CCC4C5)C3=O)n2C)c1 (stereo partly shown) [Compound 271] | < 100 | – | –
31 | COc1cccc(-c2cc(C#CCCCOC(=O)[C@H](CC(N)=O)NC(=O)OC(C)(C)C)c(/C=C3\SC(=S)N(C4CC5CCC4C5)C3=O)s2)c1 (stereo partly shown) [Compound 314] | < 100 | – | –
32 | COc1cc(OC)cc(-c2cc(CCCNC(=O)[C@@H]3CCCN3)c(/C=C3\SC(=S)N(C4CC5CCC4C5)C3=O)o2)c1 (stereo partly shown) [Compound 172] | < 100 | – | –
33 | O=C1/C(=C/c2ccc(-c3ccc(Cl)cc3)o2)SC(=S)N1C1CCCCC1 [Compound 47] | < 100 | – | –
34 | COCOc1cc(-c2ccc(/C=C3\SC(=S)N(C4CC5CCC4C5)C3=O)o2)cc(OC)c1OC (stereo not shown) [Compound 27] | < 100 | – | –
35 | O=C1/C(=C/c2ccc(-c3ccc(Cl)cc3)s2)SC(=S)N1C1CC2CCC1C2 (stereo not shown) [Compound 316] | < 100 | – | –
36 | COc1ccc(-c2cc(CCCCCO)c(/C=C3\SC(=S)N(C4C5CC6CC(C5)CC4C6)C3=O)o2)cc1 (stereo not shown) [Compound 342] | < 100 | – | –
37 | COc1cccc(-c2cc(CCCO)c(/C=C3\SC(=S)N(C4C5CC6CC(C5)CC4C6)C3=O)[nH]2)c1 (stereo not shown) [Compound 233] | – | – | < 100
38 | Cn1c(-c2ccc(Cl)cc2)cc(CCCCCO)c1/C=C1\SC(=S)N(C2CC3CCC2C3)C1=O (stereo not shown) [Compound 260] | < 100 | – | –
39 | COc1cccc(-c2cc(CCCCCO)c(/C=C3\SC(=S)N(C4C5CC6CC(C5)CC4C6)C3=O)[nH]2)c1 (stereo not shown) [Compound 237] | < 100 | – | –
40 | COc1ccc(-c2ccc(/C=C3\SC(=S)N(C4CC5CCC4C5)C3=O)o2)cc1C(=O)N[C@@H](Cc1ccccc1)C(=O)O (stereo partly shown) [Compound 85] | < 100 | – | –
41 | COc1cc(O)cc(-c2ccc(/C=C3\SC(=S)N(C4C5CC6CC(C5)CC4C6)C3=O)o2)c1 (stereo not shown) [Compound 18] | < 100 | – | –
42 | COc1cccc(-c2cc(CCCO)c(/C=C3\SC(=S)N(C4C5CC6CC(C5)CC4C6)C3=O)[nH]2)c1 (stereo not shown) [Compound 238] | – | – | 250 to 1000

Row | SMILES | EC50 ([1]; MDCK) [nM] | EC50 [2] [nM] | EC50 [1] [nM]
43 | COC(=O)COc1ccc2c(O)c(-c3ccc(/C=C4\SC(=S)N(C5C6CC7CC(C6)CC5C7)C4=O)o3)c(=O)oc2c1 (stereo not shown) [Compound 319] | < 100 | – | –
44 | COc1cc(OC)cc(-c2cc(CCCN(CC(=O)O)CC(=O)O)c(/C=C3\SC(=S)N(C4CC5CCC4C5)C3=O)o2)c1 (stereo not shown) [Compound 133] | 100 to 250 | – | –
45 | COc1cc(COc2ccc3oc(=O)c(-c4ccc(/C=C5\SC(=S)N(C6CC7CCC6C7)C5=O)s4)c(O)c3c2)cc(OC)c1 (stereo not shown) [Compound 315] | < 100 | – | –
46 | O=C1/C(=C/c2oc(-c3cccc(F)c3)cc2CCCCCO)SC(=S)N1C1C2CC3CC(C2)CC1C3 (stereo not shown) [Compound 344] | < 100 | – | –
47 | COc1ccc(-c2ccc(/C=C3\SC(=S)N(C4CC5CCC4C5)C3=O)o2)cc1OCC(=O)N[C@@H](Cc1ccc(O)cc1)C(=O)O (stereo partly shown) [Compound 77] | 100 to 250 | – | –
48 | COc1ccc2c(O)c(-c3ccc(/C=C4\SC(=S)N(C5C6CC7CC(C6)CC5C7)C4=O)o3)c(=O)oc2c1OC (stereo not shown) [Compound 72] | 100 to 250 | – | –
49 | O=C1/C(=C/c2ccc(-c3cc(O)cc(O)c3)o2)SC(=S)N1C1C2CC3CC(C2)CC1C3 (stereo not shown) [Compound 5] | < 100 | – | –
50 | O=C1/C(=C/c2ccc(-c3ccc(Cl)cc3)o2)SC(=S)N1C1C2CC3CC(C2)CC1C3 (stereo not shown) [Compound 43] | < 100 | – | –
51 | O=C1/C(=C/c2oc(-c3ccc(Cl)cc3)cc2CCCOC[C@@H](O)CO)SC(=S)N1C1CC2CCC1C2 (stereo partly drawn) [Compound 203, (Z)-3-(bicyclo[2.2.1]heptan-2-yl)-5-((3-(3-((S)-2,3-dihydroxypropoxy)propyl)-5-(4′-chlorophenyl)-furan-2-yl)methylene)-2-thioxothiazolidin-4-one] | < 100 | – | –
52 | O=C1/C(=C/c2sc(-c3ccc(Cl)cc3)cc2CCCCCO)SC(=S)N1C1C2CC3CC(C2)CC1C3 (stereo not shown) [Compound 281] | < 100 | – | –
53 | O=C1/C(=C/c2oc(-c3ccc(Cl)cc3)cc2CCCCCN2CCNCC2)SC(=S)N1C1CC2CCC1C2 (stereo not shown) [Compound 192] | < 100 | – | –
54 | O=C1/C(=C/c2ccc(-c3ccc(Cl)cc3)o2)SC(=S)N1C1CCCC1 [Compound 48] | < 100 | – | –
55 | COC(=O)/C=C/c1ccc(/C=C2\SC(=S)N(C3C4CC5CC(C4)CC3C5)C2=O)o1 (stereo not shown) [Compound 224] | < 100 | – | –
56 | O=C1/C(=C/c2coc3ccc(Br)cc3c2=O)SC(=S)N1C1CCC2CCCCC2C1 (stereo not shown) [Compound 206] | < 100 | – | –
57 | O=C1/C(=C/c2sc(-c3cccc(Cl)c3)cc2C#CCCCO)SC(=S)N1C1CC2CCC1C2 (stereo not shown) [Compound 286] | < 100 | – | –
58 | O=C1/C(=C/c2ccc(-c3c(O)c4ccc(OC5CCCCC5)cc4oc3=O)o2)SC(=S)N1C1CC2CCC1C2 (stereo not shown) [Compound 323] | < 100 | – | –
59 | O=C1/C(=C/c2sc(-c3ccc(Cl)cc3)cc2C#CCCCO)SC(=S)N1C1CC2CCC1C2 (stereo not shown) [Compound 291] | < 100 | – | –
60 | O=C1/C(=C/c2oc(-c3ccc(Cl)cc3)cc2CCCN2CCOCC2)SC(=S)N1C1CC2CCC1C2 (stereo not shown) [Compound 179] | < 100 | – | –
61 | O=C1/C(=C/c2oc(-c3ccc(F)cc3)cc2CCCN2CCNCC2)SC(=S)N1C1CC2CCC1C2 (stereo not shown) [Compound 187] | < 100 | – | –
62 | O=C(O)c1ccc(-c2ccc(/C=C3\SC(=S)N(C4C5CC6CC(C5)CC4C6)C3=O)o2)cc1 (stereo not shown) [Compound 3] | < 100 | – | –
